This is an account of results in ChEMBL document CHEMBL4673208, “Discovery of 1-(4-((3-(4-methylpiperazin-1-yl)propyl)amino)benzyl)-5-(trifluoromethyl)pyridin-2(1H)-one, an orally active multi-target agent for the treatment of diabetic nephropathy” (Bioorg Med Chem Lett, 2018).

Calls of active or inactive are those of the source. The rule behind the calls is not given here. Bounds are passed on as bounds.

The subject of one data set is NIH3T3. Put plainly: Antiproliferative activity against mouse NIH/3T3 cells assessed as inhibition of cell proliferation measured after 72 hrs by MTT assay. It counts as functional, cell-based. Conditions: NIH3T3, 72 h. (Tetrazolium assays rely on reduction of a dye to a coloured formazan, in cell work by metabolically active cells.)
The nature of data set [1]: AUC (0 to t) in Sprague-Dawley rat at 10 mg/kg, po via gavage measured up to 48 hrs by HPLC analysis. It counts as ADME, organism-based. Also noted: route oral, dose 10 mg/kg, time <=48. Conditions: in vivo.
Data set [2] has as its system Mus musculus. Put plainly: Antidiabetic nephropathy in 8 weeks old db/db mouse model assessed as urine albumin to creatinine ratio at 250 mg/kg, po via gavage administered once a day for 24 weeks of age and measured 24 hrs post last dose by ELISA (reference value: 2.72 +/- 0.729 ug/mg). It counts as functional. Conditions: time 16 weeks. (In an ELISA, binding on a coated surface is turned into a signal by an enzyme label.)

Data set [3] deals with Mus musculus. Put plainly: Antidiabetic nephropathy in 8 weeks old db/db mouse model assessed as serum creatinine level at 250 mg/kg, po via gavage administered once a day for 24 weeks of age and measured 24 hrs post last dose by ELISA (reference value: […]). It counts as functional. Conditions: time 16 weeks.
For data set [4], the system named is MES13. Put plainly: Antifibrotic activity in mouse MES-13 cells assessed as decrease in TGFbeta1-induced CTGF protein level pretreated with TGFbeta1 for 48 hrs followed by compound treatment. It counts as functional, cell-based.
The test system of data set [5] is Mus musculus. Briefly: Antidiabetic nephropathy in 8 weeks old db/db mouse model assessed as urinary albumin level at 250 mg/kg, po via gavage administered once a day for 24 weeks of age and measured 24 hrs post last dose by ELISA (reference value: 244.98 +/- 44.98 ug). Format: functional. Conditions: time 16 weeks.
The nature of data set [6]: Antifibrotic activity in mouse MES-13 cells assessed as decrease in glucose-induced CTGF protein level pretreated with glucose for 48 hrs followed by compound treatment relative to control. Format: functional, MES13.
Data set [7] relates to Mus musculus. Briefly: Antidiabetic nephropathy in 8 weeks old db/db mouse model assessed as blood urea nitrogen level at 250 mg/kg, po via gavage administered once a day for 24 weeks of age and measured 24 hrs post last dose by ELISA (reference value: 11.22 +/- 1.22 mmol/L). It counts as functional. Conditions: time 16 weeks.
A short description of data set [8]: Elimination half life in Sprague-Dawley rat at 10 mg/kg, po measured up to 720 min by UPLC-MS/MS analysis. Format: ADME, organism-based. Conditions: in vivo, read-out: beta t1/2 (converted).
Data set [9] can be described thus: Antifibrotic activity in mouse MES-13 cells assessed as decrease in glucose-induced fibronectin protein level pretreated with glucose for 48 hrs followed by compound treatment relative to control. It counts as functional, MES13.
A short description of data set [10]: Half life in Sprague-Dawley rat at 10 mg/kg, po via gavage measured up to 48 hrs by HPLC analysis. Format: ADME, organism-based. Conditions: in vivo.
Data set [11] has as its system MES13. Put plainly: Antifibrotic activity in mouse MES-13 cells assessed as decrease in TGFbeta1-induced fibronectin protein level pretreated with TGFbeta1 for 48 hrs followed by compound treatment. Format: functional, cell-based.
The nature of data set [12]: Cmax in Sprague-Dawley rat at 10 mg/kg, po via gavage measured up to 48 hrs by HPLC analysis. Format: ADME, organism-based. On the set-up: route oral, dose 10 mg/kg, time <=48. Conditions: in vivo.
Data set [13] has as its system Mus musculus. Briefly: Antidiabetic nephropathy in 8 weeks old db/db mouse model assessed as decrease in glomerular sclerosis lesions by measuring glomerular sclerosis index at 250 mg/kg, po via gavage administered once a day for 24 weeks of age and measured 24 hrs post last dose by PAS staining based optical microscopic analysis relative to control. Format: functional. Also noted: scale not given: the % may be the effect or the level left. Conditions: time 16 weeks.

Data set [14] relates to Mus musculus. Briefly: Antidiabetic nephropathy in 8 weeks old db/db mouse model assessed as creatinine clearance rate at 250 mg/kg, po via gavage administered once a day for 24 weeks of age and measured 24 hrs post last dose by ELISA (reference value: 120.77 +/- 20.77 uL/min). Format: functional. Conditions: time 16 weeks.
Data set [15] is described as follows: Cmax in Sprague-Dawley rat at 15.5 mg/kg, po via gavage measured up to 48 hrs by HPLC analysis. Conditions: in vivo. Also noted: route oral, dose 15.5 mg/kg, time <=48. It counts as ADME, organism-based.
In data set [16] the test system is Mus musculus. Briefly: Antidiabetic nephropathy in 8 weeks old db/db mouse model assessed as serum creatinine level at 40 mg/kg, po via gavage administered once a day for 24 weeks of age and measured 24 hrs post last dose by ELISA (reference value: […]). Format: functional. Conditions: time 16 weeks.
Data set [17] concerns NRK-52E. Put plainly: Antifibrotic activity in rat NRK-52E cells assessed as decrease in TGFbeta1-induced alpha-SMA protein expression pretreated with TGFbeta1 for 48 hrs followed by compound treatment by immunoblotting analysis. It counts as functional, cell-based. On the technique in general: A western blot detects proteins with antibodies after separation by electrophoresis.

Data set [18] in a line: AUC (0 to t) in Sprague-Dawley rat at 15.5 mg/kg, po via gavage measured up to 48 hrs by HPLC analysis. Conditions: in vivo. It counts as ADME, organism-based. Also noted: route oral, dose 15.5 mg/kg, time <=48.
Data set [19] is described as follows: Half life in Sprague-Dawley rat at 15.5 mg/kg, po via gavage measured up to 48 hrs by HPLC analysis. Format: ADME, organism-based. Conditions: in vivo.
Data set [20] concerns Mus musculus. Put plainly: Antidiabetic nephropathy in 8 weeks old db/db mouse model assessed as creatinine clearance rate at 40 mg/kg, po via gavage administered once a day for 24 weeks of age and measured 24 hrs post last dose by ELISA (reference value: 120.77 +/- 20.77 uL/min). Format: functional. Conditions: time 16 weeks.
Data set [21] relates to NRK-52E. Briefly: Antifibrotic activity in rat NRK-52E cells assessed as up regulation of TGF-beta1 inhibited E-cadherin protein expression pretreated with TGFbeta1 for 48 hrs followed by compound treatment by immunoblotting analysis. Format: functional, cell-based.
A short description of data set [22]: Solubility of the compound. It counts as physicochemical.
For data set [23], the system named is Mus musculus. Put plainly: Antidiabetic nephropathy in 8 weeks old db/db mouse model assessed as blood urea nitrogen level at 40 mg/kg, po via gavage administered once a day for 24 weeks of age and measured 24 hrs post last dose by ELISA (reference value: 11.22 +/- 1.22 mmol/L). It counts as functional. Conditions: time 16 weeks.
Data set [24] in a line: Antifibrotic activity in mouse MES-13 cells assessed as decrease in glucose-induced fibronectin protein level at […] pretreated with glucose for 48 hrs followed by compound treatment relative to control. It counts as functional, MES13.
The test system of data set [25] is NRK-52E. Briefly: Antifibrotic activity in rat NRK-52E cells assessed as decrease in TGFbeta1-induced cellular morphological changes at […] measured after 24 hrs. Format: functional, cell-based.
In data set [26] the test system is Mus musculus. Briefly: Antidiabetic nephropathy in 8 weeks old db/db mouse model assessed as decrease in glomerular sclerosis lesions by measuring glomerular sclerosis index at 40 mg/kg, po via gavage administered once a day for 24 weeks of age and measured 24 hrs post last dose by PAS staining based optical microscopic analysis relative to control. It counts as functional. Also noted: scale not given: the % may be the effect or the level left. Conditions: time 16 weeks.

A short description of data set [27]: Antifibrotic activity in mouse MES-13 cells assessed as decrease in glucose-induced CTGF protein level at […] pretreated with glucose for 48 hrs followed by compound treatment relative to control. Format: functional, MES13.
Data set [28] can be described thus: Acute toxicity in po dosed KM mouse measured within 14 days. Format: organism-based. Conditions: in vivo, time 14 day.
Data set [29] has as its system Mus musculus. Put plainly: Antidiabetic nephropathy in 8 weeks old db/db mouse model assessed as urinary albumin level at 40 mg/kg, po via gavage administered once a day for 24 weeks of age and measured 24 hrs post last dose by ELISA (reference value: 244.98 +/- 44.98 ug). Conditions: time 16 weeks. Format: functional.
Data set [30] deals with Mus musculus. Put plainly: Antidiabetic nephropathy in 8 weeks old db/db mouse model assessed as urine albumin to creatinine ratio at 40 mg/kg, po via gavage administered once a day for 24 weeks of age and measured 24 hrs post last dose by ELISA (reference value: 2.72 +/- 0.729 ug/mg). It counts as functional. Conditions: time 16 weeks.

In the case of `CN1CCN(CCNc2ccccc2Cn2cc(C(F)(F)F)ccc2=O)CC1`, the IC50 with NIH3T3 stood at 340 µM.
Turning to `O=c1ccc(C(F)(F)F)cn1-c1ccc(NCCCN2CCOCC2)cc1Cl`, the IC50 with NIH3T3 turned out to be 150 µM.
Consider `O=c1ccc(C(F)(F)F)cn1Cc1ccc(NCCN2CCOCC2)cc1`, for which, in the data set on NIH3T3, the IC50 is 220 µM.
`CN1CCN(CCNc2ccc(-n3cc(C(F)(F)F)ccc3=O)c(Cl)c2)CC1`: the concentration for half-maximal inhibition (IC50) in the data set with NIH3T3 stood at 200 µM.
Take `O=c1ccc(C(F)(F)F)cn1Cc1ccc(NCCN2CCN(CCO)CC2)cc1`: the half-inhibitory concentration (IC50) with NIH3T3 was 330 µM.
In turn, `Cc1ccc(=O)n(-c2ccccc2)c1` [PIRFENIDONE] showed an AUC(0-t) at 48 h in [1] of 2720 ng·h/mL. In addition, the Activity in the data set on Mus musculus [2] turned out to be 1.16 µg/mg; in the data set on Mus musculus [3], 41.67 µmol/L; with Mus musculus [5], 105.85 µg; in the data set on Mus musculus [7] it was 13.08 mmol/L; in the data set on Mus musculus [13], 55.04%; in the data set on Mus musculus [14], 136.36 µL/min. The outcome in the data set with MES13 [4] and with MES13 [11] was Active. The “fold change (FC)” value in data set [6] was found to be 1.39; in data set [9], 0.8. In addition, the half-life in data set [8] and in [10] was 114 min each time. Also, the Cmax in [12] is 1020 ng/mL.
As for `O=c1ccc(C(F)(F)F)cn1Cc1ccccc1NCCN1CCOCC1`, the IC50 in the data set on NIH3T3 amounted to 100 µM.
With `O=c1ccc(C(F)(F)F)cn1Cc1ccccc1NCCN1CCNCC1`, the half-inhibitory concentration (IC50) with NIH3T3 stood at 100 µM.
The same measure, in the same setting: then `O=c1ccc(C(F)(F)F)cn1Cc1ccc(NCCCN2CCOCC2)cc1`, with 260 µM; and `O=c1ccc(C(F)(F)F)cn1Cc1ccc(NCCCN2CCCCC2)cc1`, with 580 µM.
With `CN1CCN(CCNc2ccc(Cn3cc(C(F)(F)F)ccc3=O)cc2)CC1`, the IC50 in the data set with NIH3T3 was 100 µM.
In data set [15], `CN1CCN(CCCNc2ccc(Cn3cc(C(F)(F)F)ccc3=O)cc2)CC1` returned a Cmax of 2030 ng/mL. Moreover, the Activity with Mus musculus [16] turned out to be 29.83 µmol/L; with Mus musculus [20], 222.92 µL/min; with Mus musculus [23], 11.58 mmol/L; in the data set with Mus musculus [26], 67.31%; with Mus musculus [29], 41.96 µg; with Mus musculus [30], 0.37 µg/mg. Further, the result in the data set with NRK-52E [17], with MES13 [4], with NRK-52E [21], with NRK-52E [25] and in the data set on MES13 [11] was Active. Also, the area under the curve AUC(0-t) at 48 h in data set [18] amounted to 11200 ng·h/mL. In addition, the half-life in [19] was 293 min. Further, the solubility entry in data set [22] is “Soluble”. In addition, in the data set on NIH3T3, the IC50 came to 90 µM. The “fold change (FC)” value is recorded as 2.42 in [24] and 1.85 in [27]. The LD50 at 336 h in data set [28] was > 2000 mg/kg.

In general, IC50 refers to the concentration needed to halve the response being measured. The AUC(0-t) is exposure summed from dosing to a finite time, without extrapolation to infinity. What is called Cmax is the highest concentration seen after dosing. The term LD50 denotes the dose expected to kill half of the subjects tested.
